Data taken from PubChem BioAssay AID1996.
In brackets after ≈: the same amount, converted by molar mass.

Conditions: buffer; pH 7.4; 200.0 µM

`COc1cccc(NC(=O)N2CCCC2C(=O)NCc2ccco2)c1` (centres undefined) and `O=C(Nc1ccccc1)N1CCCC1c1cccs1` (centres undefined) are within 1.5-fold of each other in solubility kinetic: 47.6 µg/mL (≈ 139 µM) for the first, 39.9 µg/mL (≈ 146 µM) for the second.

First: COc1ccccc1C(=O)Nc1cccc2c1CCCC2
Second: COc1ccc(NC(=O)c2cc3ccccc3cc2OC)cc1
The solubility kinetic of the first is lower: less than 0.6 µg/mL for the first, 5.9 µg/mL (≈ 19.2 µM) for the second.

Going from `CN(Cc1ccccc1)S(=O)(=O)c1ccc(Cl)c(C(=O)O)c1` to `COc1ccc2oc(=O)c(C(=O)NCc3ccccc3)cc2c1`, the solubility kinetic falls from greater than 51 µg/mL to 0.7 µg/mL (≈ 2.26 µM).

Compared with `CCCc1cnc(N2CCN(C(=O)c3ccc(OC)cc3)CC2)nc1`, `COc1cccc(N2CCN(C(=S)Nc3ccc(F)cc3)CC2)c1` is 34-fold lower in solubility kinetic: 20.5 µg/mL (≈ 60.2 µM) for the first, 0.6 µg/mL (≈ 1.74 µM) for the second.

`Cc1ccc(C(=O)CCC(=O)Nc2cccc(C)c2)cc1` and `CCC(=O)Nc1ccc(NC(=O)c2ccc3ccccc3c2)cc1` cannot be ordered by solubility kinetic: less than 0.6 µg/mL for the first, less than 0.3 µg/mL for the second.

First: COc1ccc(NC(=S)NC(=O)/C=C/c2ccccc2)cc1
Second: COc1ccc(NC(=O)C2CCCN(C(=O)Nc3ccc(OC)cc3)C2)cc1 (centres undefined)
The solubility kinetic of the first is lower: less than 0.3 µg/mL for the first, 7.5 µg/mL (≈ 19.6 µM) for the second.

Compared with `CC(=O)c1cnc(Oc2cc(Cl)ccc2Cl)nc1C`, `CC(=O)Nc1cc(-c2nc3ccccc3o2)ccc1Cl` is 26-fold lower in solubility kinetic: 42.4 µg/mL (≈ 143 µM) for the first, 1.6 µg/mL (≈ 5.58 µM) for the second.

Compared with `COC(=O)Cn1cc(C=C2C(=O)N(C)C(=O)N(C)C2=O)c2ccccc21`, `Cc1cccc(N=Cc2c(O)n(C)c(=O)n(C)c2=O)c1` is 2.6-fold higher in solubility kinetic: 3.8 µg/mL (≈ 10.7 µM) for the first, 10 µg/mL (≈ 36.6 µM) for the second.

First: COc1ccc(OC(=O)c2cnc3n(c2=O)CCS3)cc1
Second: COc1ccc(OCC(=O)NCCCn2ccnc2)cc1.Cl
The solubility kinetic of the first is lower: 35 µg/mL (≈ 115 µM) for the first, greater than 48.9 µg/mL for the second.

Compared with `COc1ccc2oc(-c3ccccc3)c(C(=O)N(C)C)c2c1`, `COc1cccc(NC(=O)CSc2nc(C3CC3)nc3ccccc23)c1` is lower in solubility kinetic: greater than 44.3 µg/mL for the first, less than 0.3 µg/mL for the second.

Compared with `CCN(CC)C(=O)CN1CCC(c2nc3cc(C)c(C)cc3[nH]2)CC1`, `CCC1CCCCN1C(=O)CSc1nc(N)cc(N)n1` (centres undefined) is lower in solubility kinetic: greater than 51.4 µg/mL for the first, 43.1 µg/mL (≈ 146 µM) for the second.

Compared with `CC(=O)Nc1ccc(S(=O)(=O)NCCc2c[nH]c3ccc(C)cc23)cc1`, `NS(=O)(=O)c1ccc(NC(=O)CSc2ncccn2)cc1` is higher in solubility kinetic: 33.8 µg/mL (≈ 91 µM) for the first, greater than 48.7 µg/mL for the second.

First: CCCCNC(=O)C1(NC(=O)Nc2ccccc2)CCCCC1
Second: CC(=O)NC(CC(=O)N1CCCC1)c1ccccc1 (centres undefined)
The solubility kinetic of the first is lower: 5.5 µg/mL (≈ 17.3 µM) for the first, greater than 39.1 µg/mL for the second.

Compared with `O=C(COc1ccc(Cl)cc1Br)NC(=O)NC1CCCC1`, `O=C(COC(=O)Cc1ccccc1F)NC(=O)NC1CCCC1` is 6.6-fold higher in solubility kinetic: 6.4 µg/mL (≈ 17 µM) for the first, 42.5 µg/mL (≈ 132 µM) for the second.

Going from `Cc1ccc(NC(=O)c2ccco2)c(NC(=O)c2ccccc2)c1` to `O=C(NCCCc1ccccc1)C(=O)c1c[nH]c2ccccc12`, the solubility kinetic falls from 4.1 µg/mL (≈ 12.8 µM) to 1.2 µg/mL (≈ 3.92 µM) (3.4-fold).

`CN(CC(=O)Nc1ccc(F)cc1)C(=O)c1ccc(OCc2cn3ccccc3n2)cc1` and `Cc1cnc(C(=O)OCC(=O)c2ccc(-c3ccccc3)cc2)cn1` are within 1.5-fold of each other in solubility kinetic: 10.4 µg/mL (≈ 24 µM) for the first, 7.7 µg/mL (≈ 23.2 µM) for the second.

Compared with `O=C1NC(c2ccc(Cl)c([N+](=O)[O-])c2)Nc2ccccc21` (centres undefined), `CC1(c2ccccc2)NC(=O)N(CC(=O)Nc2ccccc2C(=O)NC2CC2)C1=O` (centres undefined) is higher in solubility kinetic: 7.7 µg/mL (≈ 25.4 µM) for the first, greater than 61 µg/mL for the second.

`Br.Clc1ccc(CNCC2CCCO2)cc1` (centres undefined) and `c1ccc2[nH]c(SCC3CCCCO3)nc2c1` (centres undefined) cannot be ordered by solubility kinetic: greater than 46 µg/mL for the first, greater than 37.3 µg/mL for the second.

Going from `O=C(NCCN1CCOCC1)c1cccc(Br)c1` to `CSc1ncccc1C(=O)OCC(=O)Nc1ccc(C)c(S(=O)(=O)N2CCOCC2)c1`, the solubility kinetic falls from 46.4 µg/mL (≈ 148 µM) to 21 µg/mL (≈ 45.1 µM) (2.2-fold).

Compared with `O=C(c1ccc(F)cc1)N1CCC2(CC1)OCCO2`, `O=C(/C=C/c1ccco1)NCCc1ccc(F)cc1` is 3.8-fold lower in solubility kinetic: 39.2 µg/mL (≈ 148 µM) for the first, 10.3 µg/mL (≈ 39.7 µM) for the second.

Going from `O=C(CN1C(=O)CCC1=O)Nc1nc(-c2ccc3ccccc3c2)cs1` to `CCCN(C(=O)CCc1ccc(OC)cc1)c1c(N)n(Cc2ccccc2)c(=O)[nH]c1=O`, the solubility kinetic rises from 1.8 µg/mL (≈ 4.93 µM) to 8.9 µg/mL (≈ 20.4 µM) (4.9-fold).

Compared with `CC(=O)NC(NC(=S)Nc1ccc(S(N)(=O)=O)cc1)C(Cl)(Cl)Cl` (centres undefined), `O=C(Nc1cccc(S(=O)(=O)NC2=NCCC2)c1)c1ccc(F)cc1F` is 2.4-fold lower in solubility kinetic: 62.6 µg/mL (≈ 149 µM) for the first, 25.8 µg/mL (≈ 68 µM) for the second.

`NC(=O)CCCc1nc(-c2ccccc2)no1` and `O=C(COC(=O)c1ccccc1Br)NCc1cccs1` cannot be ordered by solubility kinetic: greater than 34.7 µg/mL for the first, greater than 53.1 µg/mL for the second.

`CC1CN(C(=O)c2cc3cc([N+](=O)[O-])ccc3oc2=O)CC(C)O1` (centres undefined) and `CC(=O)Nc1cc2c3c(c1)CC(=O)N3CCC2` cannot be ordered by solubility kinetic: 46.1 µg/mL (≈ 139 µM) for the first, greater than 34.5 µg/mL for the second.

Compared with `COc1cccc(OC)c1/C=C/C(=O)NC1CCCCC1`, `CCCC(=O)NC(=S)Nc1cccc(Cl)c1N1CCCC1` is 12-fold lower in solubility kinetic: 5.8 µg/mL (≈ 20 µM) for the first, 0.5 µg/mL (≈ 1.53 µM) for the second.

Going from `CCOC(=O)c1cc2c(ccn2C)n1Cc1ccc(C#N)cc1` to `CCc1ccc(C(=O)NC(=S)NCc2cccnc2)cc1`, the solubility kinetic rises from 2.3 µg/mL (≈ 7.48 µM) to 39.9 µg/mL (≈ 133 µM) (17-fold).

Going from `O=C(/C(=C(\O)c1ccccc1)c1ncc[nH]1)c1ccccc1` to `Fc1ccc(-c2ncc3ccccn23)cc1`, the solubility kinetic rises from 9.5 µg/mL (≈ 32.7 µM) to 14.3 µg/mL (≈ 67.4 µM) (1.5-fold).

`CN1OC[C@@H]2COc3ccc4ccccc4c3[C@@H]21` and `c1ccc2c(c1)COC(CN1CCCCC1)OC2` are within 1.5-fold of each other in solubility kinetic: 33.1 µg/mL (≈ 137 µM) for the first, 35.6 µg/mL (≈ 144 µM) for the second.

`CN1CCN(CC(=O)c2ccccc2F)CC1.O=C(O)C(=O)O` and `Cc1c(/C=C(\CC(=O)O)c2nc3ccccc3s2)cc(C#N)n1C` are within 1.5-fold of each other in solubility kinetic: 42.9 µg/mL for the first, 44.6 µg/mL (≈ 132 µM) for the second.

`CC(C)CN(C(=O)C1CC1)C1CCS(=O)(=O)C1` (centres undefined) showed a solubility kinetic greater than 38.9 µg/mL.
